{
  "source": "patent EP3443956A1",
  "about": "“A COMPOUND INCREASING ENDOCANNABINOIDS CONCENTRATION IN A SUBJECT FOR USE FOR PREVENTING AND/OR TREATING A SOCIAL BEHAVIOR DISORDER” (INSTITUT NATIONAL DE LA SANTE ET DE LA RECHERCHE MEDICALE …, priority 2017, dated 2019)",
  "key": {"adult rats": {"tested_on": "adult rats", "type": "in vivo, rat", "experimental": "Wistar female rats (Charles River, France) weighing 250-280 g were housed at constant room temperature (20 ± 1°C) and humidity (60%), and exposed to a light cycle of 12 h/day (08:00 a.m. to 08:00 p.m.), with food and water available ad libitum. For mating, pairs of females were placed with single male rats in the late afternoon. Vaginal smears were taken the following morning at 09:00 a.m. The day on which sperm was present was designated as the day 0 of gestation (GD 0).\n(§1) Treatment was performed daily with the CB1 R receptor agonist WIN55,212-2 (0.5 mg/kg) or Delta9-Tetrahydrocannabinol (THC, 5 mg/kg) or their respective vehicles from GD 5 to GD 20. WIN55,212-2 was suspended in 5% DMSO, 5% cremophor and saline, and injected s.c. at a volume of 1 ml/kg. Control dams (Sham group) received a similar volume injection of vehicle solution. THC was suspended in 5% Ethanol, 5% cremophor and saline, and injected s.c. at a volume of 1 ml/kg.\n(§2) Pups were weaned at 21 days of age. For behavioral and electrophysiological experiments male and female rats were tested at adulthood (postnatal day 90-120).\nThe test was performed in a sound attenuated chamber under dim light conditions. The testing arena consisted of a Plexiglas cage measuring 45 × 45 cm, with 2 cm of wood shavings covering the floor. Social behavior was assessed as previously described (Trezza et al., 2012).\nBriefly, adult rats were individually habituated to the test cage for 5 min (adult rats) on each of the 2 days prior to testing. Before testing, adult animals were socially isolated for 24 h, respectively, to enhance their social motivation and thus facilitate the expression of social behaviors during testing. Drug treatments were counterbalanced so that cage mates were allocated to different treatment groups. […] Behavior was assessed per pair of animals and analyzed by a trained observer who was unaware of treatment condition using the Ethovision XT video tracking software (Noldus, Wageningen, The Netherlands).\nThe test consisted of placing two similarly treated animals into the test cage for 10 min (adult rats). In rats, a bout of social play behavior starts with one rat soliciting ('pouncing') another animal, by attempting to nose or rub the nape of its neck. The animal that is pounced upon can respond in different ways. If the animal that is pounced upon fully rotates to its dorsal surface, 'pinning' is the result, i.e., one animal lying with its dorsal surface on the floor with the other animal standing over it. From this position, the supine animal can initiate another play bout, by trying to gain access to the other animal's neck. Thus, during social play, pouncing is considered an index of play solicitation, while pinning can be regarded as the terminal component of a single play bout as well as a releaser of a prolonged play bout. Pinning and pouncing frequencies can be easily quantified and they are considered to be the most characteristic parameters of social play behavior in rats. During the social encounter, animals may also display social behaviors not directly associated with play, such as sniffing or grooming the partner's body. A pair of rats was considered as one experimental unit. […]"}, "[1]": {"tested_on": "eCB-LTD of excitatory synapses onto medium spiny neurons (MSNs)", "assay": "Field potential recordings of eCB-LTD in accumbens slices"}, "[2]": {"tested_on": "eCB-LTD of excitatory synapses onto layer 5 mPFC pyramidal neurons", "assay": "Field potential recordings of eCB-LTD in mPFC slices", "design": "species or system rat", "experimental": "as §1, §2\nAdult male and female rats were anesthetized with isoflurane and killed as previously described (Martin and Manzoni, 2014). The brain was sliced (300 µm) in the coronal plane with a vibratome (Integraslice, Campden Instruments) in a sucrose-based solution at 4°C (in mm as follows: 87 NaCl, 75 sucrose, 25 glucose, 2.5 KCI, 4 MgCl2, 0.5 CaCl2, 23 NaHCO3 and 1.25 NaH2PO4). Immediately after cutting, slices containing the medial prefrontal cortex (PFC) or accumbens were stored for 1 h at 32°C in a low calcium ACSF that contained (in mm) as follows: 130 NaCl, 11 glucose, 2.5 KCI, 2.4 MgCl2, 1.2 CaCl2, 23 NaHCO3, 1.2 NaH2PO4, and were equilibrated with 95% 02/5% CO2 and then at room temperature until the time of recording.\nField potential recordings were made in coronal slices containing the mPFC or the accumbens as previously described (Robbe et al., 2002). During the recording, slices were placed in the recording chamber and superfused at 2 ml/min with either low Ca2+ ACSF for mPFC or normal ACSF for the accumbens. All experiments were done at 32°C or room temperature for mPFC and accumbens, respectively. The superfusion medium contained picrotoxin (100 µM) to block GABA Type A (GABA-A) receptors. All drugs were added at the final concentration to the superfusion medium.\nFor extracellular field experiments, the recording pipette was filled with ACSF.\nBoth fEPSP area and amplitude were analyzed. Stimulation was performed with a glass electrode filled with ACSF and the stimulus intensity was adjusted ∼60% of maximal intensity after performing an input-output curve (baseline EPSC amplitudes ranged between 50 and 150 pA). Stimulation frequency was set at 0.1 Hz.\nThe magnitude of plasticity was calculated 38-40 min after induction as percentage of baseline responses. Statistical analysis of data was performed with Prism (GraphPad Software) using tests indicated in the main text after outlier subtraction. All values are given as mean ± SEM, and statistical significance was set at p < 0.05."}, "[3]": {"settings": "Sham adult female rats, capsazepine 5 mg/Kg i.p., 30 min before testing"}},
  "note": "Where two headings read alike, the source gives them in different places.",
  "data": [
    {"smiles": "Cc1c(C(=O)c2cccc3ccccc23)c2cccc3c2n1[C@H](CN1CCOCC1)CO3", "note": "[WIN55,212-2]", "values": [
      {"measurement": "distance travelled during the test", "setting": "adult rats; rat, in vivo", "value": "3779 ± 228.8", "unit": "cm"},
      {"measurement": "contact with congeners (total frequency of social interaction)", "setting": "adult rats; rat, in vivo, sc", "value": "had less contact with their congeners"},
      {"measurement": "time in social interactions", "setting": "adult rats; rat, in vivo, sc", "value": "spent less time in social interactions"},
      {"measurement": "total frequency of social interaction", "setting": "adult rats; rat, in vivo, sc", "value": "no difference"},
      {"measurement": "total time of social interaction", "setting": "adult rats; rat, in vivo, sc", "value": "no difference"},
      {"measurement": "eCB-LTD in accumbens", "setting": "[1]", "value": "robust eCB-LTD"}
    ]},
    {"smiles": "Cc1c(C(=O)NN2CCCCC2)nn(-c2ccc(Cl)cc2Cl)c1-c1ccc(Cl)cc1", "note": "[SR141716, 5-(4-chloro-phenyl)-1-(2,4-dichlorophenyl)-4-methyl-N-1-piperidinyl-1H-pyrazole-3-carboxamide]", "values": [
      {"measurement": "effect on the curating actions of URB597 on social interaction", "setting": "adult rats; adult male rats exposed in utero to WIN55,212-2, SR141716 1 mg/kg i.p. 30 min before URB597 0.1 mg/Kg i.p.", "value": "prevented the curating actions of URB597"},
      {"measurement": "effect of the antagonist by itself on social interaction", "setting": "adult rats; adult rats, SR141716 1 mg/kg i.p.", "value": "did not induce effects by itself"},
      {"measurement": "effect on LTD in mPFC", "setting": "[2]; Sham adult male rats, slices preincubated for 45 min in 5 µM SR141716", "value": "completely blocked LTD"},
      {"measurement": "effect on LTD of evoked EPSPs in mPFC", "setting": "[2]; adult females exposed in utero to WIN55,212-2, slices preincubated for 45 min in 5 µM SR141716", "value": "not mediated by CB1 R receptors"},
      {"measurement": "block of the URB597 rescue of eCB-LTD", "setting": "[2]; adult male rats exposed in utero to WIN55,212-2, URB597 2 µM plus SR141716 5 µM", "value": "blocked the URB597 rescue"}
    ]},
    {"smiles": "Oc1cc2c(cc1O)CN(C(=S)NCCc1ccc(Cl)cc1)CCC2", "note": "[capsazepine, N-[2-(4-Chlorophenyl)ethyl]-1,3,4,5-tetrahydro-7,8-dihydroxy-2H-2-benzazepine-2-carbothioamide]", "values": [
      {"measurement": "frequency of social interaction", "setting": "adult rats; [3]", "value": "reduced"},
      {"measurement": "total time of social interaction", "setting": "adult rats; [3]", "value": "reduced"},
      {"measurement": "effect on the curating effects of URB597 on social interaction", "setting": "adult rats; adult rats exposed in utero to WIN55,212-2, capsazepine with URB597 0.1 mg/kg i.p.", "value": "did not block the curating effects of URB597"},
      {"measurement": "effect on LTD in mPFC", "setting": "[2]; Sham adult female rats, slices preincubated for 45 min in 10 µM capsazepine", "value": "completely blocked LTD"}
    ]},
    {"smiles": "N#Cc1cc2[nH]c(=O)c(=O)[nH]c2cc1[N+](=O)[O-]", "note": "[CNQX]", "values": [
      {"measurement": "effect on the field EPSP (fEPSP)", "setting": "[2]; CNQX 20 µM at the end of the experiments, data not shown", "value": "specifically blocked the synaptic component without altering the nonsynaptic component"}
    ]},
    {"smiles": "NC(=O)c1cccc(-c2cccc(OC(=O)NC3CCCCC3)c2)c1", "note": "[URB597, (3'-(aminocarbonyl)[1,1'-biphenyl]-3-yl)-cyclohexylcarbamate]", "values": [
      {"measurement": "social interaction (social deficits)", "setting": "adult rats; adult male rats exposed in utero to WIN55,212-2, URB597 0.1 mg/kg i.p., 2 h before testing", "value": "ameliorated social deficits"},
      {"measurement": "restoration of eCB-LTD in the PFC", "setting": "[2]; adult male rats exposed in utero to WIN55,212-2, slices incubated with URB597 2 µM for 45-90 min before LTD induction", "value": "sufficient to restore eCB-LTD"}
    ]}
  ]
}
